From patent US5635379A, “D-2-alkyl-tryptophan and peptides containing same” (Deghenghi; Romano, priority 1990, dated 1997)
Square brackets hold non-standard residues; d marks the D form. Peptide text beside a SMILES is read from it. dTrp(2-Me) = Cc1[nH]c2ccccc2c1C[C@@H](N)C(=O)O

System: pituitary cell monolayers
Test: GH-releasing activity in pituitary cell culture (monolayers)
Format: cell-based, Sprague Dawley rats
Settings: for GH in medium: 2 hours incubation
Description: Male Sprague Dawley rats (Charles River, Calco, Italy) of 2-3 months of age were used. Rats were housed at 22 +2° C., with lighting cycle of 14 h light: 10 h dark (lights on from 06.00 to 20.00 h), at least 10 days before starting the experiments. A standard dry diet and water were available ad libitum.
Pituitary tissue used for cell dissociation included only the anterior lobe. Briefly, pituitary glands were collected in sterile F-10 medium and after cutting into small fragments incubated twice (30 minutes each) at 37° C. in F-10 medium containing 6% fetal calf serum and collagenase (2.5 mg/ml) (Boehringer, Mannheim GmbH, Germany). Fragments were then washed in Dulbecco's PBS, Ca^2+ and Mg^2+ free medium and mechanically dissociated. Single cell suspension was planted onto 24-well (2×10^5 cells/well) culture plates. The cells were incubated in F-10 medium supplemented with 10% horse serum, 4% fetal calf serum and gentamycin (25 μg/ml), in a humidified atmosphere of 5% CO2 and 95% air at 37° C.
After 3 days, the medium was removed and the cells washed twice with serum free F-10, then incubated with 1 ml of F-10 containing 0.1% BSA only, or with added various concentrations of synthetic peptides.
After incubation for 2 h at 37° C., media were collected and stored frozen at -20° C. until assayed for measurement of GH content.
Medium and plasma GH was measured by radioimmunoassay using materials supplied by the NIADDK Bethesda, Md. Values were expressed in term of NIASSK-rat-GH-RP-2 standard (potency 2 IU/ml), as ng/ml of medium or plasma.
The minimum detectable value of rat was 1.0 ng/ml; intra-assay variability was 6%. To avoid inter-assay variation, samples from each experiment were assayed simultaneously.

## Cc1[nH]c2ccccc2c1C[C@@H](NC(=O)[C@@H](N)Cc1cnc[nH]1)C(=O)N[C@@H](C)C(=O)N[C@@H](Cc1c[nH]c2ccccc12)C(=O)N[C@H](Cc1ccccc1)C(=O)N[C@@H](CCCCN)C(N)=O [Example 4, His-D-2-methyl-Trp-Ala-Trp-D-Phe-Lys-NH2] (H-H[dTrp(2-Me)]AW[dF]K-NH2)
10^-6 M
  GH in medium: 558.0 ± 19.1 ng/well
10^-7 M
  GH in medium: 589.1 ± 17.9 ng/well
10^-8 M
  GH in medium: 557.8 ± 15.9 ng/well
10^-8 to 10^-6 M, two hours
  GH secretion versus basal: stimulation of GH secretion over basal secretion
